The source of these data is PubChem BioAssay AID1418 (Emory University Molecular Libraries Screening Center, 2008).

Several values for one entry are separate records, joined by “and”; a condition that tells them apart may be missing. Identical values can stand only once. Activity calls are given as the source filed them. How the calls were made is not given here.

Sequence of Induced myeloid leukemia cell differentiation protein Mcl-1 (Homo sapiens) (Q07820 whole entry, looked up): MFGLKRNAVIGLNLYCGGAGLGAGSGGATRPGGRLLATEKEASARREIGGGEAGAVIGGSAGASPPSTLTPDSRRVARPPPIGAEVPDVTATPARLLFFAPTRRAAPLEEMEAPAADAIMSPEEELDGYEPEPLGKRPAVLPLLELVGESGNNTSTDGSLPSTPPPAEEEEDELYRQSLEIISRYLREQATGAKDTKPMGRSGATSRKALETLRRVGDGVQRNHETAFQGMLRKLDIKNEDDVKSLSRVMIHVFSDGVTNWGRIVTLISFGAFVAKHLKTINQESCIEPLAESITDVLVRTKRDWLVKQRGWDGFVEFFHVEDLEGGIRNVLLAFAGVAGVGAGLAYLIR

This test concerns the target Induced myeloid leukemia cell differentiation protein Mcl-1 (Homo sapiens) (UniProt Q07820). Kind of test: blockers of Bid binding to Mcl-1 – biochemical, TR-FRET, dose response (AID 1418). The settings on record: Mcl-1/Bid peptide binding, TR-FRET (europium/Dy647), 2 hr.
As a reminder, the IC50 is the concentration needed to halve the response being measured. As for `O=[N+]([O-])c1ccc2c(c1)ncn2-c1ccccc1`, the IC50 was > 54 µM (inactive).
`COc1ccc(OC)c(-n2c(N)c(C(=O)NCC3CCCO3)c3nc4ccccc4nc32)c1` (stereo unspecified): the IC50 is > 54 µM (inactive).
As for `Cc1cccc(OCc2nc(C#N)c(NCc3ccc4c(c3)OCO4)o2)c1`, the IC50 is > 54 µM (inactive).
In the case of `CSc1nc(C)cc(OCC(=O)n2nc(C)cc2C)n1` it was > 54 µM (inactive).
Regarding `Brc1cccc(OCCOCCn2ccnc2)c1`, the IC50 was > 54 µM (inactive).
For `CC(C)[C@H](NC(=O)NCCC1=CCCCC1)C(=O)O`, the IC50 is > 54 µM (inactive).
Regarding `CCSc1nnc(NC(=O)C(Cc2ccccc2)n2cccc2)s1` (stereo unspecified), the IC50 was > 54 µM (inactive).
`C=CCn1c(O)c(N=NC(=O)CNC(=O)/C=C/c2ccc(OC)cc2)c2ccccc21`: the IC50 was > 54 µM (inactive).
Under `COc1ccc(N/C(=C(/C(Cl)=C(Cl)Cl)[N+](=O)[O-])n2nnc3ccccc32)cc1OC` stands > 54 µM (inactive); under `O=C(Nc1cnn(C23CC4CC(CC(C4)C2)C3)c1)c1cnn2c(C(F)(F)F)cc(-c3ccco3)nc12`, 1.38 µM.
In the case of `CCOC(=O)C1CCCN(Cc2ccccc2OCC)C1` (stereo unspecified) it was > 54 µM (inactive); in that of `Cn1c(CSc2nc3ccccc3s2)nnc1SCC(=O)NCc1cccnc1`, > 54 µM (inactive); in that of `Cc1ccc2[nH]c(=O)c(-c3nc4cc(C)ccn4c3NCc3ccco3)cc2c1`, 12.6 µM.
In the case of `CCOC(=O)c1cc(-c2ccc(/C=C3/C(=O)NC(=O)C(C#N)=C3C)o2)ccc1Cl` it was 0.79 µM.
Regarding `CCCc1cc(=O)[nH]c(SCC(=O)c2c(C)[nH]c3ccccc23)n1`, the IC50 is > 54 µM (inactive).
As to `O=C(COC(=O)c1cc[n+]([O-])cc1)Nc1ccccc1Cl`, the IC50 was > 54 µM (inactive).
In the case of `O=C(O)CCN1C(=O)/C(=C/c2cn(-c3ccccc3)nc2-c2cccs2)SC1=S`, the IC50 was 6.79 µM.
In the case of `Cc1ccc(C(=O)CN(C(=O)c2ccc(Cl)c(Cl)c2)N2C(=O)C3C4C=CC(C4)C3C2=O)cc1` (stereo unspecified) it was > 54 µM (inactive); in that of `Cc1ccc2nc(NC(=O)c3cccc(-c4cc5ccccc5oc4=O)c3)sc2c1`, 0.99 µM; in that of `O=C(Nc1ccc(Nc2ccncc2)cc1)c1ccc(Nc2ccnc3ccc([N+](=O)[O-])cc23)cc1[N+](=O)[O-]`, 1.38 µM.
As for `Cc1cc2c(C(C)C)c(O)c(O)c(C=O)c2c(O)c1-c1c(C)cc2c(C(C)C)c(O)c(O)c(C=O)c2c1O`, the half-inhibitory concentration (IC50) was 1.17 µM and 0.86 µM.
With `COc1ccc(C(=O)/C=C/c2ccc(N3CCCCC3)c([N+](=O)[O-])c2)cc1`, the IC50 was > 54 µM (inactive).
For `COc1cc2c(cc1OC)C(Nn1cnnc1)=NC1(CCCC1)C2`, the IC50 was > 54 µM (inactive).
Consider `CC1C(=O)CCN(C(C)C)C1C` (stereo unspecified), for which the IC50 was > 54 µM (inactive).
`CCOC(=O)c1c(/N=C/C2C(=O)NC(=S)NC2=O)sc(C)c1C`: the IC50 is 2.08 µM.
For `Cc1ccc(S(=O)(=O)N2CN3CCN(C3)C2)cc1`, the IC50 is > 54 µM (inactive).
For the molecule `Cc1ccc(Cl)c(OCCCN(C)Cc2ccccc2)c1`, the IC50 is > 54 µM (inactive).
For the molecule `COCCn1c(SCC(=O)NC(=O)NCc2ccccc2)nc2ccccc21`, the IC50 was > 54 µM (inactive).
For `CC(=O)c1ccc(NC(=O)C(C)n2c3ccccc3c3nc(=O)cc(C)n32)cc1` (stereo unspecified), the IC50 is > 54 µM (inactive).
On to `CN1CCN(C(=S)c2cn(Cc3ccccc3F)c3ccccc23)CC1`, for which the IC50 is > 54 µM (inactive).
For `NS(=O)(=O)c1ccc(CCNC(=O)C(=O)c2c[nH]c3ccccc23)cc1`, the IC50 is > 54 µM (inactive).
As for `CCN(CC)c1ccc(NC(=O)Cn2ncc3c(C)n(Cc4ccccc4F)c(C)c3c2=O)c(C)c1`, the IC50 is 0.53 µM.
Turning to `O=C(CSc1nnc(SCc2cccc3ccccc23)s1)N=Nc1c(O)[nH]c2ccccc12`, the IC50 was 3.51 µM.
Under `N#Cc1c2nc3ccccc3nc2n2cc(NC(=O)c3ccc(F)cc3)ccc12` stands 0.71 µM; under `O=C(O)CCc1nn2c3ccccc3n(CC(=O)c3ccccc3)c2nc1=O`, > 54 µM (inactive); under `O=C(CCCN1C(=O)c2ccccc2C1=O)NCCCn1ccnc1`, > 54 µM (inactive).
Take `COc1ccc(-n2cc(-c3ccc(OC(F)F)cc3)[n+]3c2CCCCC3)cc1`: the IC50 was > 54 µM (inactive).
Turning to `CC1CCN(S(=O)(=O)c2cccc(C(=O)Nc3ccccn3)c2)CC1`, the IC50 is > 54 µM (inactive).
Consider `CSc1nc(N(C)CCO)c2sc3nc(-c4ccco4)c4c(c3c2n1)CCC4`, for which the IC50 is > 54 µM (inactive).
As to `CC1CCCC(C)N1CCNC(=O)C1CCN(S(=O)(=O)N2CCCCC2)CC1` (stereo unspecified), the IC50 was > 54 µM (inactive).
Turning to `CCOc1ccc(-c2nnc(-c3ccccc3)n2-c2ccccc2)cc1`, the IC50 entry was “inactive”.
In the case of `CC(=O)Nc1ccc(S(=O)(=O)NCc2ccccn2)cc1` it was > 54 µM (inactive).
In the case of `Cc1ccccc1C(=O)NC(=S)Nc1sc2c(c1C#N)CCCC2` it was > 54 µM (inactive); in that of `COc1ccc(-c2nnn(CC(=O)N(CCCO)C(C(=O)NC3CCCC3)c3ccncc3)n2)cc1` (stereo unspecified), > 54 µM (inactive).
Take `CC1(C)Oc2ccc3ccc(=O)oc3c2C[C@H]1O`: the IC50 is > 54 µM (inactive).
With `Cc1ccc(S(=O)(=O)/N=C2/C=C(Sc3ncn[nH]3)C(=O)c3ccccc32)cc1`, the IC50 was 2.73 µM.
Take `COc1ccc(N2C(=O)/C(=C/C=C/c3ccccc3[N+](=O)[O-])C(=O)NC2=S)cc1`: the half-inhibitory concentration (IC50) is 1.05 µM.
On to `COc1cc(/C=C2\SC(=O)N(c3cccc(Cl)c3)C2=O)cc([N+](=O)[O-])c1O`, for which the half-maximal inhibitory concentration (IC50) was 6.38 µM.
`O=C(Nc1ccc2c(c1)OCCO2)NC1(C(F)(F)F)Oc2ccccc2O1`: the IC50 was > 54 µM (inactive).
Turning to `O=C1NC(=S)N(C2CC2)C(=O)/C1=C/c1ccc2c(c1)CCN2CCCCl`, the IC50 is 0.66 µM.
In the case of `O=C(CP(=O)(c1ccccc1)c1ccccc1)Nc1nc2ccc(Cl)cc2s1`, the IC50 is > 54 µM (inactive).
`COC(=O)c1cccc(NC(=S)Nc2cccc(Cl)c2Cl)c1`: the IC50 was > 54 µM (inactive).
In the case of `COc1ccc(Nc2ncc(C(=O)N3CCN(c4ccc(F)cc4)CC3)c3ccccc23)cc1`, the IC50 was > 54 µM (inactive).
Turning to `COC(=O)c1cc(OC)c(OC)cc1NCC(=O)Nc1ccc(C)cc1`, the IC50 is > 54 µM (inactive).
For the molecule `O=C(Nc1ccc(Cl)cc1)N1CCc2[nH]c3ccccc3c2C1`, the IC50 is > 54 µM (inactive).
As to `O=[N+]([O-])c1cc(Br)c(O)c(/C=N/Nc2nc3ccccc3s2)c1`, the half-maximal inhibitory concentration (IC50) is 1.16 µM.
Under `CC(C(=O)O)n1nc2ccccc2n1` (stereo unspecified) stands > 54 µM (inactive); under `C#CCOCCOCCOCCNc1nc(N2CCN(C(=O)[C@H](Cc3cc4ccccc4[nH]3)n3cc([C@@H](N)C(C)CC)nn3)CC2)nc(N2CCN(C(=O)[C@H](Cc3cc4ccccc4[nH]3)n3cc([C@@H](N)Cc4ccc(O)cc4)nn3)CC2)n1` (stereo partly specified), > 54 µM (inactive); under `O=c1c2ccccc2nc2n1CCC2`, 0.52 µM.
With `NC(=O)NC(CC(=O)NCCc1ccc(S(N)(=O)=O)cc1)c1ccc(Cl)cc1` (stereo unspecified), the IC50 is > 54 µM (inactive).
For `Cc1nnc(Sc2c(N)n(C)c(=O)[nH]c2=O)s1`, the IC50 is > 54 µM (inactive).
Take `Cc1ccccc1OCCNC(=O)CNC(=O)c1ccccc1O`: the IC50 was > 54 µM (inactive).
Consider `COc1ccc(C(=O)Nc2cccc(C)c2)cc1S(=O)(=O)N1CCOCC1`, for which the IC50 was > 54 µM (inactive).
In the case of `S=C(NNc1ccnc2cc(Cl)ccc12)Nc1ccc(Cl)cc1Cl` it was 2.22 µM.
In the case of `Nc1cccc(C(=O)OCC(=O)Nc2cccc3c2C(=O)c2ccccc2C3=O)c1`, the IC50 is 2.38 µM.
For the molecule `O=C(CNc1ccc2ccccc2c1)N/N=C/c1ccc([N+](=O)[O-])o1`, the IC50 is > 54 µM (inactive).
Regarding `C/C(=N/NC(=O)c1ccccn1)c1ccc(O)cc1`, the IC50 is > 54 µM (inactive).
`CCCCCC#CCC#CCC#CCC#CCCCC(=O)O`: the 50% inhibitory concentration (IC50) is 1.78 µM.
`O=C(O)CCN1C(=O)/C(=C\c2ccc(-c3nc4ccccc4s3)o2)SC1=S`: the IC50 is 0.57 µM.
`O=C(COc1ccccc1)N1CCN(Cc2c[nH]c3ccccc23)CC1`: the IC50 was > 54 µM (inactive).
Regarding `CN(C)c1ccc(/C=c2\sc3nc(-c4ccccc4)nn3c2=O)cc1`, the IC50 was 5.15 µM.
Regarding `O=C(N=Nc1c(O)[nH]c2ccc([N+](=O)[O-])cc12)c1cc(-c2ccccc2Cl)nc2ccccc12`, the IC50 is 0.81 µM.
With `Cc1ccc(C(=O)NNC(=O)CSc2nnc3c(n2)[nH]c2ccc(F)cc23)cc1`, the IC50 is > 54 µM (inactive).
On to `Cc1ccc(NC(=O)Cn2c(O)c(N=NC(=O)c3cc4ccccc4cc3O)c3ccccc32)cc1`, for which the 50% inhibitory concentration (IC50) is 6.65 µM.
As for `COc1cccc(CNc2nc3ccc(C)cc3n3cnnc23)c1`, the IC50 is > 54 µM (inactive).
`COc1ccc(C(=O)Nc2cccc(-c3cc4ccccc4oc3=O)c2)cc1[N+](=O)[O-]`: the IC50 was 1.24 µM.
For `NC(=S)N/N=C/c1coc2c(ccc3ccccc32)c1=O`, the IC50 was 4.99 µM.
Consider `Cc1c(C(=O)N/N=C/c2ccc(-c3ccccc3[N+](=O)[O-])o2)sc(N)c1C#N`, for which the IC50 is 14.1 µM.
Under `COc1ccccc1NC(=O)C(=O)N/N=C/c1ccc([N+](=O)[O-])s1` stands > 54 µM (inactive); under `CN1C(=S)N(c2cccnc2)C(=O)/C1=C\c1ccc(N(C)C)cc1`, 9 µM; under `CC(NC(=O)NC1CCCCC1)C(c1cccs1)N1CCN(c2ccccc2)CC1` (stereo unspecified), > 54 µM (inactive).
Take `O=C(O)CCCN1C(=O)/C(=C\c2ccc(-c3nc4ccccc4s3)o2)SC1=S`: the IC50 is 0.53 µM.
As to `CCOc1c(C(N)=O)c(-c2ccccc2)c2c(=O)[nH]c3ccccc3n12`, the IC50 was > 54 µM (inactive).
Regarding `O=C(Cc1c(F)cccc1Cl)Nc1ccon1`, the IC50 was > 54 µM (inactive).
On to `CC1CCCN(C(=S)Nc2ccc3nc4n(c(=O)c3c2)CCCCC4)C1` (stereo unspecified), for which the IC50 is > 54 µM (inactive).
As for `Cc1ccc(S(=O)(=O)N2CCOCC2)cc1C(=O)N1C(=O)c2cccc(N)c2C1=O`, the IC50 is > 54 µM (inactive).
